Source: patent publication US20170252327A1, “Methods of Modulating Gastrointestinal Tract Flora Levels with Alkaline Phosphatase” (priority 2008, published 2017)

Tests used:
gut microbiota [1] = assay: Restoration of gut flora after ampicillin treatment with or without cIAP (stool culture in LB media); format: in vivo, mice (C57BL/6)
Method: An experiment was performed in which five mice (C57BL/6) of each test group, approximately 6 weeks old, were treated with 1 mg/ml of the antimicrobial drug ampicillin, in the presence or absence of calf intestinal alkaline phosphatase (cIAP) (New England Biolabs, Ipswich, Mass.). Ampicillin was administered orally with the animal's drinking water at a concentration of 1 mg/ml, and 250 units of cIAP were administered twice daily as oral gavage. Individual stool samples of each group were cultured in LB media each day and analyzed for the presence/absence of the gut flora. The gut flora of mice before receiving the antibiotic was considered as a baseline control for normal gastrointestinal tract flora (present in all samples). […] Both treatment groups received ampicillin for 10 days.

[2] = system: Gram-negative bacteria (mostly E. coli); assay: Restoration of commensal Gram-negative gut flora in streptomycin-treated WT mice with or without cIAP (MacConkey agar); format: in vivo; settings: streptomycin 5 mg/ml in drinking water
Method: Accordingly, experiments were performed in which groups of WT mice (n=10) were treated orally with the antibiotic streptomycin in the presence or absence of cIAP. Streptomycin (5 mg/ml) and cIAP (200 U/ml for cIAP^+ Group, n=5) or ‘vehicle for cIAP’ (20 μl/ml ‘vehicle for cIAP’ (50 mM KCl, 10 mM Tris-HCl (pH 8.2), 1 mM MgCl, 0.1 mM ZnCl2, and 50% glycerol) in drinking water for control cIAP^− Group, n=5) were administered in the animals' drinking water and fecal cultures were performed.
Individual stool samples were cultured each day on MacConkey agar media. […] After discontinuation of antibiotic treatment, the time of appearance (Day) of Gram-negative bacteria (mostly E. coli, occasionally P. mirabilis) in stool samples was recorded for each animal. The experiment was repeated six times, which raised the total number of animals in each group to 39 (n=39), however, duration of each experiment varied (7-35 days). Data was compiled from all six experiments and the number of animals with E. coli in each group on a specific day was recorded.

gut microbiota [3] = assay: Restoration of gut flora after streptomycin treatment with or without cIAP (stool culture in LB media); format: in vivo, mice (C57BL/6)
Method: To address the role of intestinal alkaline phosphatase on the gastrointestinal tract flora of mammals, an experiment was performed in which five approximately six week old mice (C57BL/6) of each test group were treated with an antimicrobial drug, streptomycin, in the presence or absence of calf intestinal alkaline phosphatase (cIAP) (Sigma, St. Louis, Mo.). Both streptomycin (5 mg/ml) and cIAP (50 units/ml) were administered orally with the animal's drinking water. Individual stool samples of each group were cultured in LB media each day and analyzed for the presence/absence of gut flora. The gastrointestinal tract flora of mice before antibiotic treatment was considered as a baseline control for the normal gut flora (present in all samples).

IAP = assay: Stool IAP activity in PTU-treated mice given T3 (hyperthyroid); format: in vivo
Description: In WT mice, IAP (Akp3 isoform) is expressed at postnatal Day 15 (Narisawa et al., Am J Physiol Gastrointest Liver Physiol, 293:G1068, 2007), while IAP-KO mice lack this enzyme for their entire life. However, a variety of pathophysiological conditions can lead to altered IAP expression in adult WT animals, which may affect their intestinal flora. Accordingly, stool samples of hypothyroid and hyperthyroid mice were examined, since IAP is known to be silenced in hypothyroid animals and dramatically over-expressed in hyperthyroid animals (Hodin et al., Surgery, 120:138, 1996; Malo et al., Mol Endocrinol, 18:1941, 2004). For 32 weeks, groups of mice (n=5) were given water containing 0.05% propylthiouracil (PTU) in order to induce hypothyroidism by inhibiting both thyroid hormone biosynthesis and peripheral T4 deiodination (Cooper et al., Biochem Pharmacol, 33:3391, 1984). After 6 weeks of PTU treatment, one group received a daily i.p. injection of T3 (30 μg per 100 gm body weight, hyperthyroid) and the other group received a daily i.p. injection of normal saline (0.9% NaCl, hypothyroid) for 26 weeks (Hodin et al., Surgery, 120:138, 1996).
IAP activity was determined following the protocol as described by Baykov et al. (Anal Biochem, 171:266, 1988). Briefly, individual stool samples were homogenized in water (10 mg/100 μl), centrifuged and supernatant was collected. Then 25 μl of the stool supernatant (or aqueous cIAP solution) were mixed with 175 μl phosphatase assay reagent containing 5 mM of p-nitrophenyl phosphate (pNPP) followed by determining optical density at 405 nm after a specific time period when the samples usually turned yellow due to release of p-nitrophenol. Protein concentrations of stool supernatants were measured using a kit from Bio-Rad Laboratories (Hercules, Calif.). The specific activity of the enzyme, expressed as pmole pNPP hydrolyzed per minute per μg of protein, and CFU per gm of stool +/− SEM were determined and the results are shown in FIG. 3. […]

## CC1(C)S[C@@H]2[C@H](NC(=O)[C@H](N)c3ccccc3)C(=O)N2[C@H]1C(=O)O [Ampicillin alone, ampicillin]
Gut microbiota [1]; Day 1
  Bacteria in the stool: Present
Gut microbiota [1]; Day 2
  Bacteria in the stool: Absent
Gut microbiota [1]; Day 3
  Bacteria in the stool: Absent
Gut microbiota [1]; Day 4
  Bacteria in the stool: Absent
Gut microbiota [1]; Day 5
  Bacteria in the stool: Absent
Gut microbiota [1]; Day 6
  Bacteria in the stool: Absent
Gut microbiota [1]; Day 7
  Bacteria in the stool: Absent
Gut microbiota [1]; Day 8
  Bacteria in the stool: Absent
Gut microbiota [1]; Day 9
  Bacteria in the stool: Absent
Gut microbiota [1]; Day 10
  Bacteria in the stool: Absent
Gut microbiota [1]; Day 11
  Bacteria in the stool: Absent
Gut microbiota [1]; Day 12
  Bacteria in the stool: Absent
Gut microbiota [1]; Day 13
  Bacteria in the stool: Absent
Gut microbiota [1]; Day 14
  Bacteria in the stool: Absent
Gut microbiota [1]; Day 15
  Bacteria in the stool: Absent
Gut microbiota [1]; Day 16
  Bacteria in the stool: Absent
Gut microbiota [1]; Day 17
  Bacteria in the stool: Absent
Gut microbiota [1]; Day 18
  Bacteria in the stool: Absent
Gut microbiota [1]; Day 19
  Bacteria in the stool: Absent
Gut microbiota [1]; Day 20
  Bacteria in the stool: Absent
Gut microbiota [1]; Day 21
  Bacteria in the stool: Absent
Gut microbiota [1]; Day 22
  Bacteria in the stool: Absent
Gut microbiota [1]; Day 23
  Bacteria in the stool: Absent
Gut microbiota [1]; Day 24
  Bacteria in the stool: Present
Gut microbiota [1]; ampicillin for 10 days
  Day at which stools showed normal gut flora: 24 days
  No bacterial growth in stools until: 23 days

## [H]/N=C(/N)N[C@H]1[C@H](O)[C@@H](O)[C@H](O[C@@H]2O[C@@H](C)[C@](O)(C=O)[C@H]2O[C@@H]2O[C@@H](CO)[C@H](O)[C@@H](O)[C@@H]2NC)[C@@H](N/C(N)=N\[H])[C@@H]1O [Streptomycin alone, streptomycin]
[2]
  Time to elimination of aerobic Gram-negative organisms in all animals: ≤ 24 h
Gut microbiota [3]; 24 hours after discontinuation of streptomycin
  Bacterial growth in stools: no bacterial growth
Gut microbiota [3]; Day 1
  Bacteria in the stool: Absent
Gut microbiota [3]; Day 2
  Bacteria in the stool: Absent
Gut microbiota [3]; Day 3
  Bacteria in the stool: Absent
Gut microbiota [3]; Day 4
  Bacteria in the stool: Absent
Gut microbiota [3]; Day 5
  Bacteria in the stool: Absent
Gut microbiota [3]; Day 6
  Bacteria in the stool: Absent
Gut microbiota [3]; Day 7
  Bacteria in the stool: Absent
Gut microbiota [3]; Day 8
  Bacteria in the stool: Absent
Gut microbiota [3]; Day 9
  Bacteria in the stool: Absent
Gut microbiota [3]; Day 10
  Bacteria in the stool: Present
Gut microbiota [3]; after streptomycin for 24 hours
  Time stools remained sterile: up to nine
Gut microbiota [3]; streptomycin for 24 hours
  Day at which stools showed signs of the normal gastrointestinal tract flora: 10 days

## N[C@@H](Cc1cc(I)c(Oc2ccc(O)c(I)c2)c(I)c1)C(=O)O [T3]
IAP; Week 32, hyperthyroid animals
  Stool IAP activity, higher compared to euthyroid animals: approximately 7 fold
  Stool IAP activity, higher compared to hypothyroid animals: ~15 fold
IAP; Weeks 12-32, daily i.p. T3
  IAP activity in stools: increased IAP activity
